Results published in PubChem BioAssay AID248 (DTP/NCI, 2004).
Several values for one entry are separate records, joined by “and”; a condition that tells them apart may be missing. Equal entries are not always repeated. Inconclusive results and toxic doses are left out. Rule as the data show it: active = T/C of 150% or more; inactive = T/C below 125%.

Tested on: L1210 leukemia ip in BDF1 mice, survival T/C
Assay: NCI In Vivo Anticancer Drug Screen. Data for tumor model L1210 Leukemia (intraperitoneal) in B6D2F1 (BDF1) mice
Conditions: endpoint: mean survival time, higher = longer survival
Outline: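 Each compound was tested against a transplantable tumor grown in mice. The endpoint was survival, with treated animals benchmarked against vehicle controls as a simple ratio.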

[1] = dose: 100.0 mg/kg/injection, schedule: Q01DX009 (ip), vehicle: saline
[2] = dose: 100.0 mg/kg/injection, schedule: Q04DX003 (ip), vehicle: Klucel (hydroxypropylcellulose) (HPC)
[3] = dose: 200.0 mg/kg/injection, schedule: Q01DX009 (ip), vehicle: saline
[4] = dose: 200.0 mg/kg/injection, schedule: Q04DX003 (ip), vehicle: Klucel (hydroxypropylcellulose) (HPC)
[5] = dose: 400.0 mg/kg/injection, schedule: Q01DX009 (ip), vehicle: saline
[6] = dose: 400.0 mg/kg/injection, schedule: Q04DX003 (ip), vehicle: Klucel (hydroxypropylcellulose) (HPC)
[7] = dose: 100.0 mg/kg/injection, schedule: Q04DX003 (ip), vehicle: saline
[8] = dose: 200.0 mg/kg/injection, schedule: Q04DX003 (ip), vehicle: saline
[9] = dose: 400.0 mg/kg/injection, schedule: Q04DX003 (ip), vehicle: saline
[10] = dose: 100.0 mg/kg/injection, schedule: Q01DX009 (ip), vehicle: saline with Tween-80
[11] = dose: 200.0 mg/kg/injection, schedule: Q01DX009 (ip), vehicle: saline with Tween-80
[12] = dose: 50.0 mg/kg/injection, schedule: Q01DX009 (ip), vehicle: saline
[13] = dose: 100.0 mg/kg/injection, schedule: Q01DX009 (ip), vehicle: Klucel (hydroxypropylcellulose) (HPC)
[14] = dose: 200.0 mg/kg/injection, schedule: Q01DX009 (ip), vehicle: Klucel (hydroxypropylcellulose) (HPC)
[15] = dose: 400.0 mg/kg/injection, schedule: Q01DX009 (ip), vehicle: Klucel (hydroxypropylcellulose) (HPC)
[16] = dose: 100.0 mg/kg/injection, schedule: Q01DX001 (ip), vehicle: saline
[17] = dose: 200.0 mg/kg/injection, schedule: Q01DX001 (ip), vehicle: saline
[18] = dose: 400.0 mg/kg/injection, schedule: Q01DX001 (ip), vehicle: saline
[19] = dose: 100.0 mg/kg/injection, schedule: Q04DX002 (ip), vehicle: Klucel (hydroxypropylcellulose) (HPC)
[20] = dose: 200.0 mg/kg/injection, schedule: Q04DX002 (ip), vehicle: Klucel (hydroxypropylcellulose) (HPC)
[21] = dose: 400.0 mg/kg/injection, schedule: Q04DX002 (ip), vehicle: Klucel (hydroxypropylcellulose) (HPC)

Measured: T/C

CCOc1ccc2cc(S(=O)(=O)O)ccc2c1N
inactive: [1] 93 % of control | [2] 97 % of control | [3] 95 % of control | [4] 98 % of control | [5] 87 % of control | [6] 101 % of control

COc1ccc2c(c1)CCC1C2CCC2(C)C(=O)C(n3cnc4c(=S)nc[nH]c43)CC12 (stereo not drawn)
inactive: dose: 100.0 mg/kg/injection, schedule: Q01DX001 (sc), vehicle: steriod suspending solution 106 % of control | dose: 200.0 mg/kg/injection, schedule: Q01DX001 (sc), vehicle: steriod suspending solution 110 % of control | dose: 400.0 mg/kg/injection, schedule: Q01DX001 (sc), vehicle: steriod suspending solution 110 % of control

O=C(O)c1cccc(-c2ccccc2)c1
inactive: dose: 25.0 mg/kg/injection, schedule: Q04DX003 (ip), vehicle: saline with Tween-80 94 % of control | dose: 50.0 mg/kg/injection, schedule: Q04DX003 (ip), vehicle: saline with Tween-80 93 % of control | dose: 100.0 mg/kg/injection, schedule: Q04DX003 (ip), vehicle: saline with Tween-80 104 % of control | [7] 101 % of control | dose: 200.0 mg/kg/injection, schedule: Q04DX003 (ip), vehicle: saline with Tween-80 94 % of control and 100 % of control | [8] 106 % of control | [9] 108 % of control

O=C(c1ccccc1Br)N1CCN=C(c2ccccc2)C=C1c1ccccc1
inactive: [7] 93 % of control | [8] 94 % of control | [9] 100 % of control

COC(=O)c1ccc(C(=O)OC)[n+]([O-])c1
inactive: [1] 102 % of control | [7] 103 % of control | [3] 106 % of control | [8] 108 % of control | dose: 266.0 mg/kg/injection, schedule: Q04DX003 (ip), vehicle: saline 93 % of control | [5] 106 % of control | [9] 101 % of control | dose: 600.0 mg/kg/injection, schedule: Q04DX003 (ip), vehicle: saline 90 % of control

Nc1ccn(C2OC(CO)C(OC3OC4COC(c5ccccc5)OC4C(O)C3O)C(O)C2O)c(=O)n1 (stereo not drawn)
inactive: dose: 22.5 mg/kg/injection, schedule: Q01DX001 (ip), vehicle: carboxymethylcellulose (CMC) 105 % of control | dose: 45.0 mg/kg/injection, schedule: Q01DX001 (ip), vehicle: carboxymethylcellulose (CMC) 100 % of control | dose: 90.0 mg/kg/injection, schedule: Q01DX001 (ip), vehicle: carboxymethylcellulose (CMC) 116 % of control | dose: 180.0 mg/kg/injection, schedule: Q01DX001 (ip), vehicle: carboxymethylcellulose (CMC) 97 % of control

CSC1CCCCC1O (stereo not drawn)
inactive: dose: 50.0 mg/kg/injection, schedule: Q01DX009 (ip), vehicle: saline with Tween-80 89 % of control | [10] 92 % of control | [11] 92 % of control

COc1cc(C=O)ccc1OC(=O)Nc1ccc(F)c([N+](=O)[O-])c1
inactive: dose: 25.0 mg/kg/injection, schedule: Q01DX009 (ip), vehicle: other 97 % of control | dose: 50.0 mg/kg/injection, schedule: Q01DX009 (ip), vehicle: other 92 % of control | dose: 100.0 mg/kg/injection, schedule: Q01DX009 (ip), vehicle: other 97 % of control and 98 % of control

CCCCCCCCCCOCCCCCCCCCC
inactive: [12] 92 % of control | [1] 92 % of control | [3] 89 % of control

CN(C)N=C(c1ccccc1)c1ccccc1
inactive: dose: 50.0 mg/kg/injection, schedule: Q01DX009 (ip), vehicle: Klucel (hydroxypropylcellulose) (HPC) 86 % of control | [13] 97 % of control

Cc1ccc(NC(=O)/C=C/c2ccccc2)cc1Cl
inactive: [13] 95 % of control | [14] 98 % of control | [15] 104 % of control

Cc1ccc(NC(=O)/C=N/O)cc1C
inactive: [16] 104 % of control | [17] 102 % of control | [18] 90 % of control

Cc1ccc(C(CCC#N)OC(C)C)cc1 (stereo not drawn)
inactive: [13] 95 % of control | [2] 96 % of control | [14] 92 % of control | [4] 101 % of control | [15] 97 % of control | [6] 92 % of control

CCOC(=O)COc1ccc([N+](=O)[O-])cc1
inactive: dose: 100.0 mg/kg/injection, schedule: Q01DX001 (ip), vehicle: Klucel (hydroxypropylcellulose) (HPC) 112 % of control | [13] 97 % of control and 98 % of control | [19] 96 % of control and 101 % of control | [2] 106 % of control | dose: 200.0 mg/kg/injection, schedule: Q01DX001 (ip), vehicle: Klucel (hydroxypropylcellulose) (HPC) 98 % of control | [14] 95 % of control and 105 % of control | [20] 96 % of control and 103 % of control | [4] 100 % of control | dose: 400.0 mg/kg/injection, schedule: Q01DX001 (ip), vehicle: Klucel (hydroxypropylcellulose) (HPC) 106 % of control | [15] 93 % of control and 101 % of control | [21] 92 % of control and 102 % of control | [6] 101 % of control

c1ccc(-c2coc(-c3ccccc3)c2)cc1
inactive: [19] 101 % of control | [20] 101 % of control | [21] 97 % of control

NC(=O)NC(O)C(Cl)(Cl)Cl (stereo not drawn)
inactive: [13] 100 % of control | [14] 100 % of control | [15] 93 % of control

NCCCCC(=O)NC(CCCCNC(=O)OCc1ccccc1)C(=O)O (stereo not drawn)
inactive: [16] 102 % of control | [17] 107 % of control | [18] 105 % of control

N#CC1OB(O)c2ccccc21 (stereo not drawn)
inactive: [7] 93 % of control | [8] 100 % of control | [9] 93 % of control

CCS(=O)(=O)N1CC(C)OC(C)C1 (stereo not drawn)
inactive: [19] 96 % of control | [20] 103 % of control | [21] 107 % of control

CCCCCCCC(=O)N1CCCCC1CC (stereo not drawn)
inactive: dose: 100.0 mg/kg/injection, schedule: Q04DX002 (ip), vehicle: saline with Tween-80 96 % of control | dose: 200.0 mg/kg/injection, schedule: Q04DX002 (ip), vehicle: saline with Tween-80 86 % of control

Cc1ccc(C)c(NC(=O)c2ccccc2C(=O)O)c1
inactive: [13] 102 % of control | [2] 101 % of control | [14] 104 % of control | [4] 102 % of control | [15] 93 % of control | [6] 98 % of control

C=C(Cl)COCC1CO1 (stereo not drawn)
inactive: dose: 44.0 mg/kg/injection, schedule: Q01DX Z (ip), vehicle: saline 92 % of control | dose: 66.0 mg/kg/injection, schedule: Q01DX Z (ip), vehicle: saline 110 % of control | dose: 100.0 mg/kg/injection, schedule: Q01DX Z (ip), vehicle: saline 94 % of control

CCOc1cc(N)ccc1C
inactive: [13] 97 % of control | [2] 108 % of control | [14] 99 % of control | [4] 97 % of control | [6] 101 % of control

C=CCc1ccc(OC(=O)Nc2ccc([N+](=O)[O-])cc2OC)c(OC)c1
inactive: [13] 96 % of control | [14] 93 % of control | [15] 96 % of control

O=[N+]([O-])c1cccc(OCCOc2ccccc2)c1
inactive: dose: 25.0 mg/kg/injection, schedule: Q01DX009 (ip), vehicle: saline with Tween-80 116 % of control | dose: 33.0 mg/kg/injection, schedule: Q01DX009 (ip), vehicle: saline with Tween-80 98 % of control | dose: 75.0 mg/kg/injection, schedule: Q01DX009 (ip), vehicle: saline with Tween-80 96 % of control | [10] 102 % of control and 86 % of control | [11] 102 % of control | dose: 400.0 mg/kg/injection, schedule: Q01DX009 (ip), vehicle: saline with Tween-80 102 % of control

CN1C(=O)C(Br)C(Br)c2ccccc21 (stereo not drawn)
inactive: dose: 100.0 mg/kg/injection, schedule: Q01DX001 (ip), vehicle: other 107 % of control | dose: 200.0 mg/kg/injection, schedule: Q01DX001 (ip), vehicle: other 102 % of control

COc1cccc(C(=O)NC[n+]2ccccc2)c1
inactive: dose: 25.0 mg/kg/injection, schedule: Q01DX009 (ip), vehicle: saline 92 % of control | dose: 25.0 mg/kg/injection, schedule: Q04DX003 (ip), vehicle: saline 96 % of control | [12] 87 % of control | dose: 50.0 mg/kg/injection, schedule: Q04DX003 (ip), vehicle: saline 86 % of control | [7] 100 % of control
